Experimental data: patent publication US10279022B2, “Peptides and combination of peptides for use in immunotherapy against various cancers” (immatics biotechnologies GmbH, priority 2015, dated 2019)

The substances below were run on CD8+ T cells (assay: In vitro T-cell priming assay (aAPCs loaded with peptide/MHC and anti-CD28), pMHC multimer readout). Conditions: in vitro immunogenicity of HLA class I peptides; peptide specific pMHC multimer staining after three stimulation cycles.
Assay type: cell-based, human
Description: In order to obtain information regarding the immunogenicity of the TUMAPs of the present invention, the inventors performed investigations using an in vitro T-cell priming assay based on repeated stimulations of CD8+ T cells with artificial antigen presenting cells (aAPCs) loaded with peptide/MHC complexes and anti-CD28 antibody.
In order to perform in vitro stimulations by artificial antigen presenting cells loaded with peptide-MHC complex (pMHC) and anti-CD28 antibody, the inventors first isolated CD8+ T cells from fresh HLA-A*02 leukapheresis products via positive selection using CD8 microbeads (Miltenyi Biotec, Bergisch-Gladbach, Germany) of healthy donors obtained from the University clinics Mannheim, Germany, after informed consent.
PBMCs and isolated CD8+ lymphocytes were incubated in T-cell medium (TCM) until use consisting of RPMI-Glutamax (Invitrogen, Karlsruhe, Germany) supplemented with 10% heat inactivated human AB serum (PAN-Biotech, Aidenbach, Germany), 100 U/ml Penicillin/100 μg/ml Streptomycin (Cambrex, Cologne, Germany), 1 mM sodium pyruvate (CC Pro, Oberdorla, Germany), 20 μg/ml Gentamycin (Cambrex). 2.5 ng/ml IL7 (PromoCell, Heidelberg, Germany) and 10 U/ml IL-2 (Novartis Pharma, Nurnberg, Germany) were also added to the TCM at this step.
Generation of pMHC/anti-CD28 coated beads, T-cell stimulations and readout was performed in a highly defined in vitro system using four different pMHC molecules per stimulation condition and 8 different pMHC molecules per readout condition.
The purified co-stimulatory mouse IgG2a anti human CD28 Ab 9.3 (Jung et al., 1987) was chemically biotinylated using Sulfo-N-hydroxysuccinimidobiotin as recommended by the manufacturer (Perbio, Bonn, Germany). Beads used were 5.6 μm diameter streptavidin coated polystyrene particles (Bangs Laboratories, Illinois, USA).
pMHC used for positive and negative control stimulations were A*0201/MLA-001 (peptide […] (SEQ ID NO. 303) from modified Melan-A/MART-1) and A*0201/DDX5-001 ([…] from DDX5, SEQ ID NO. 304), respectively.
800.000 beads/200 μl were coated in 96-well plates in the presence of 4×12.5 ng different biotin-pMHC, washed and 600 ng biotin anti-CD28 were added subsequently in a volume of 200 μl. Stimulations were initiated in 96-well plates by co-incubating 1×10^6 CD8+ T cells with 2×10^5 washed coated beads in 200 μl TCM supplemented with 5 ng/ml IL-12 (PromoCell) for 3 days at 37° C. Half of the medium was then exchanged by fresh TCM supplemented with 80 U/ml IL-2 and incubating was continued for 4 days at 37° C. This stimulation cycle was performed for a total of three times. For the pMHC multimer readout using 8 different pMHC molecules per condition, a two-dimensional combinatorial coding approach was used as previously described (Andersen et al., 2012) with minor modifications encompassing coupling to 5 different fluorochromes. Finally, multimeric analyses were performed by staining the cells with Live/dead near IR dye (Invitrogen, Karlsruhe, Germany), CD8-FITC antibody clone SK1 (BD, Heidelberg, Germany) and fluorescent pMHC multimers. For analysis, a BD LSRII SORP cytometer equipped with appropriate lasers and filters was used. Peptide specific cells were calculated as percentage of total CD8+ cells. Evaluation of multimeric analysis was done using the FlowJo software (Tree Star, Oregon, USA). In vitro priming of specific multimer+CD8+ lymphocytes was detected by comparing to negative control stimulations.

Row | Substance | Wells positive [%]
1 | 269 (YFIDSTNLKTHF; listed as Homo sapiens) [compound 269] | + (<20% = +)
2 | 204 (TYELRYFQI; listed as Homo sapiens) [compound 204] | + (<20% = +)
3 | 207 (AYVVFVSTL; listed as Homo sapiens) [compound 207] | + (<20% = +)
4 | 218 (YYKSTSSAF; listed as Homo sapiens) [compound 218] | + (<20% = +)
5 | 26 (ALQEELTEL; listed as Homo sapiens) [compound 26] | + (<20% = +)
6 | 35 (FLLPFSTVYL; listed as Homo sapiens) [compound 35] | + (<20% = +)
7 | 268 (QYLGQIQHI; listed as Homo sapiens) [compound 268] | + (<20% = +)
8 | 159 (LYNKGFIYL; listed as Homo sapiens) [compound 159] | ++++ (> = 70% = ++++)
9 | 167 (NYINRILKL; listed as Homo sapiens) [compound 167] | + (<20% = +)
10 | 18 (ILLDLTDNRL; listed as Homo sapiens) [compound 18] | + (<20% = +)
11 | 5 (GIVAHIQEV; listed as Homo sapiens) [compound 5] | + (<20% = +)
12 | 141 (FLDKVLVAA; listed as Homo sapiens) [compound 141] | + (<20% = +)
13 | 23 (SLFSDEFKV; listed as Homo sapiens) [compound 23] | ++++ (> = 70% = ++++)
14 | 230 (KLQNIMMLL; listed as Homo sapiens) [compound 230] | ++++ (> = 70% = ++++)
15 | 163 (DYLKGLASF; listed as Homo sapiens) [compound 163] | + (<20% = +)
16 | 90 (FLQDLEQRL; listed as Homo sapiens) [compound 90] | + (<20% = +)
17 | 165 (DYTTWTALL; listed as Homo sapiens) [compound 165] | + (<20% = +)
18 | 31 (TITETTVEV; listed as Homo sapiens) [compound 31] | + (<20% = +)
19 | 158 (HYSQELSLLYL; listed as Homo sapiens) [compound 158] | + (<20% = +)
20 | 149 (ILNTHITEL; listed as Homo sapiens) [compound 149] | + (<20% = +)
21 | 197 (EYSLFPGQVVI; listed as Homo sapiens) [compound 197] | + (<20% = +)
22 | 196 (LYIDRPLPYL; listed as Homo sapiens) [compound 196] | ++++ (> = 70% = ++++)
23 | 29 (YLLDPSITL; listed as Homo sapiens) [compound 29] | + (<20% = +)
24 | 285 (HYPPVQVLF; listed as Homo sapiens) [compound 285] | + (<20% = +)

Same assay, conditions: positive wells; HLA-A*02 and HLA-A*24 peptides, healthy donors

Row | Substance | in vitro immunogenicity: Wells
25 | 292 (GMMTAILGV; listed as Homo sapiens) [compound 292] | + (<20% = +)
26 | 301 (AYKPGALTF; listed as Homo sapiens) [compound 301] | + (<20% = +)
27 | 298 (RYLEGTSCI; listed as Homo sapiens) [compound 298] | + (<20% = +)
28 | 300 (AYVLRLETL; listed as Homo sapiens) [compound 300] | + (<20% = +)
29 | 296 (TYVDSSHTI; listed as Homo sapiens) [compound 296] | + (<20% = +)
30 | 291 (KLDETGNSL; listed as Homo sapiens) [compound 291] | + (<20% = +)
31 | 293 (FLVDGSWSI; listed as Homo sapiens) [compound 293] | + (<20% = +)

Each substance was assayed against HLA-A*02 (Homo sapiens, UniProt P04439, D140Y/D185E/D98H/E176V/E277Q/G131W/G231S/I119V/I121R/I166T/I218V/L300P/N151K/N90K/P208A/P217A/Q86G/Q94H/R138H/R169H) (assay: MHC binding assay by UV-ligand exchange and beta2m ELISA (HLA-A*02)). Conditions: peptide exchange yield, binding to HLA-A*02; UV-ligand exchange, beta2m ELISA.
Description: (§1) Candidate peptides for T cell based therapies according to the present invention were further tested for their MHC binding capacity (affinity). The individual peptide-MHC complexes were produced by UV-ligand exchange, where a UV-sensitive peptide is cleaved upon UV-irradiation, and exchanged with the peptide of interest as analyzed. Only peptide candidates that can effectively bind and stabilize the peptide-receptive MHC molecules prevent dissociation of the MHC complexes. To determine the yield of the exchange reaction, an ELISA was performed based on the detection of the light chain (β2m) of stabilized MHC complexes. The assay was performed as generally described in Rodenko et al. (Rodenko et al., 2006).
(§2) 96 well MAXISorp plates (NUNC) were coated over night with 2 ug/ml streptavidin in PBS at room temperature, washed 4× and blocked for 1 h at 37° C. in 2% BSA containing blocking buffer. Refolded HLA-A*02:01/MLA-001 monomers served as standards, covering the range of 15-500 ng/ml. Peptide-MHC monomers of the UV-exchange reaction were diluted 100 fold in blocking buffer. Samples were incubated for 1 h at 37° C., washed four times, incubated with 2 ug/ml HRP conjugated anti-β2m for 1 h at 37° C., washed again and detected with TMB solution that is stopped with […]. Absorption was measured at 450 nm. Candidate peptides that show a high exchange yield (preferably higher than 50%, most preferred higher than 75%) are generally preferred for a generation and production of antibodies or fragments thereof, and/or T cell receptors or fragments thereof, as they show sufficient avidity to the MHC molecules and prevent dissociation of the MHC complexes.

Row | Peptide exchange | Substance
32 | ++++ (> = 75% = ++++) | 16 (YTLDIPVLFGV; listed as Homo sapiens) [compound 16]
33 | ++++ (> = 75% = ++++) | 147 (YLMDDTVEI; listed as Homo sapiens) [compound 147]
34 | ++++ (> = 75% = ++++) | 84 (ALCPRIHEV; listed as Homo sapiens) [compound 84]
35 | ++++ (> = 75% = ++++) | 245 (SLLDLPLSL; listed as Homo sapiens) [compound 245]
36 | ++++ (> = 75% = ++++) | 126 (QMFQYFITV; listed as Homo sapiens) [compound 126]
37 | ++++ (> = 75% = ++++) | 129 (RLQDILWFL; listed as Homo sapiens) [compound 129]
38 | ++++ (> = 75% = ++++) | 51 (LLFSRLCGA; listed as Homo sapiens) [compound 51]
39 | ++++ (> = 75% = ++++) | 133 (ALLPRLHQL; listed as Homo sapiens) [compound 133]
40 | ++++ (> = 75% = ++++) | 34 (FLLATEVVTV; listed as Homo sapiens) [compound 34]
41 | ++++ (> = 75% = ++++) | 229 (AILAHLNTV; listed as Homo sapiens) [compound 229]
42 | ++++ (> = 75% = ++++) | 95 (GLLGSLFFL; listed as Homo sapiens) [compound 95]
43 | ++++ (> = 75% = ++++) | 153 (FISERVEVV; listed as Homo sapiens) [compound 153]
44 | ++++ (> = 75% = ++++) | 248 (YLDRFLAGV; listed as Homo sapiens) [compound 248]
45 | ++++ (> = 75% = ++++) | 14 (ILAKDLFEI; listed as Homo sapiens) [compound 14]
46 | ++++ (> = 75% = ++++) | 3 (KLEENGDLYL; listed as Homo sapiens) [compound 3]
47 | ++++ (> = 75% = ++++) | 257 (GLYTDPCGV; listed as Homo sapiens) [compound 257]
48 | ++++ (> = 75% = ++++) | 258 (LLSERFINV; listed as Homo sapiens) [compound 258]

Each substance was assayed on HLA-A*24 (assay: MHC binding assay by UV-ligand exchange and beta2m ELISA (HLA-A*24)). Conditions: peptide exchange yield, binding to HLA-A*24; UV-ligand exchange, beta2m ELISA.
Design: species or system human
Description: as §1, §2

Row | Peptide exchange | Substance
49 | ++++ (> = 75% = ++++) | 204 (TYELRYFQI; listed as Homo sapiens) [compound 204]
50 | ++++ (> = 75% = ++++) | 159 (LYNKGFIYL; listed as Homo sapiens) [compound 159]
51 | ++++ (> = 75% = ++++) | 167 (NYINRILKL; listed as Homo sapiens) [compound 167]
52 | ++++ (> = 75% = ++++) | 163 (DYLKGLASF; listed as Homo sapiens) [compound 163]
53 | ++++ (> = 75% = ++++) | 165 (DYTTWTALL; listed as Homo sapiens) [compound 165]
54 | ++++ (> = 75% = ++++) | 158 (HYSQELSLLYL; listed as Homo sapiens) [compound 158]
55 | ++++ (> = 75% = ++++) | 210 (IYTMIYRNL; listed as Homo sapiens) [compound 210]
